Paper PMC12796071, “Evaluation of [^18F]MNI-1054, a novel PET ligand for lysine-specific histone demethylase 1A (LSD1), in non-human primates” (EJNMMI Research, 2025)
Several values for one entry are separate records, joined by “and”; a condition that tells them apart may be missing. Equal values may be shown once. Entries after “also recorded” stand apart in the source; their conditions may differ.

Assays:
[1] = Whole-body PET biodistribution and radiation dosimetry (OLINDA 2.0); assay type: in vivo; conditions: for Dose, Urinary bladder wall: no-bladder-void model; for whole-body effective dose, ED (ICRP-103): scaled from NHP to human
Description: Dynamic whole-body PET was conducted in one male (M3, 15.4 kg) and one female (M4, 6.8 kg) rhesus to study the biodistribution and radiation dosimetry of [^18F]MNI-1054. Whole-body images were acquired over ~4 h (17–19 passes, 4 bed positions) using a Biograph mCT PET/CT scanner (Siemens). The images in the series were subsequently reconstructed in 400 × 400 × 300 pixel arrays with pixel size: 2 × 2 × 2 mm^3 using the iterative True-X algorithm (4 iterations, 21 subsets) provided by the camera manufacturer, incorporating point spread function modeling and corrections for random, scatter, normalization, dead-time and attenuation. Prior to PET, each animal received a whole-body CT for correcting attenuation and scatter as well as to assist in anatomical localization of organs of interest.
Reconstructed whole-body PET volumes were transferred to PMOD software (PMOD Technologies, Zurich, Switzerland) for analysis. Decay correction was first removed to facilitate the calculation of radioactive disintegrations from dynamic data. Images were reviewed for assessment of body organ radioactivity distribution. VOIs were manually drawn to capture the following organs: brain, heart wall, lungs, gallbladder, liver, kidneys, spleen, testes (male), urinary bladder, back vertebrae, and intestines, and defined dynamically to account for any animal movement or shift in organ position or shape between acquisitions. Total activity (kBq) within each VOI was determined and organ TACs were generated and expressed as percent of the injected activity.
The number of disintegrations per unit activity administered in each source organ (i.e., the “residence times” or “time-integrated activity coefficients”), τ, were computed from the areas under the non-decay corrected TACs via the trapezoidal method. The area under the curve from the end of imaging to infinity was calculated with the assumption of physical decay only following the last imaging time point. Residence times were converted to adult human values using conversion factors based on differences in organ and body weights between both species. The ICRP 100 HAT gastrointestinal (GI) tract model was applied to estimate residence times in the left, right, and sigmoid (i.e., rectum) colon and small intestine, with the assumption that activity entered the GI tract via the small intestine with no reabsorption. The intestinal decay-corrected time-activity curve was used for estimating the fraction of the radioactivity entering the intestine during imaging. Red marrow residence times were calculated based on assumption that vertebrae contain ~40% of total red marrow.
OLINDA 2.0 software (Hermes Medical Solutions) was used to estimate the organ and whole-body radiation absorbed doses. OLINDA 2.0 performs internal dose calculations based on MIRD and Radiation Dose Assessment Resource (RADAR) methodology. ICRP-89 adult male (73 kg) and female (60 kg) models were used to calculate the s-factors. All other MIRD assumptions about the homogeneity of source organ distribution were employed. The effective doses were computed with biological tissue weighting factors defined in the ICRP Publication 103 [26].

[2] = molecular target: LSD1 (Macaca mulatta, UniProt I2CUD2); assay: PET imaging of the testes (baseline and TAK-418 blocking); conditions: baseline scan; M3
Description: TAK-418 (3 mg/kg) was administered as an intravenous bolus over 5-min, starting 120 min prior to [^18F]MNI-1054 administration.

In the case of `Cc1cc([18F])ncc1C(=O)Nc1ccc([C@@H]2C[C@H]2NCC2CC2)cc1` [[^18F]MNI-1054], the “Dose, Adrenals” value ([1]; ICRP-89 adult female model) is reported as 2.24E-02 mSv/MBq, the “Dose, Brain” value ([1]; ICRP-89 adult female model) is reported as 1.22E-02 mSv/MBq and the “Dose, Breasts” value ([1]; ICRP-89 adult female model) is reported as 1.06E-02 mSv/MBq. The “Dose, Esophagus” value ([1]; ICRP-89 adult female model) was 1.75E-02 mSv/MBq, the “Dose, Eyes” value ([1]; ICRP-89 adult female model) was 9.29E-03 mSv/MBq and the “Dose, Gallbladder wall” value ([1]; ICRP-89 adult female model) was 2.88E-01 mSv/MBq. For the same molecule, the “Dose, Heart wall” value ([1]; ICRP-89 adult female model) was 4.98E-02 mSv/MBq, the “Dose, Kidneys” value ([1]; ICRP-89 adult female model) was 5.28E-02 mSv/MBq and the “Dose, Left colon” value ([1]; ICRP-89 adult female model) was 3.02E-02 mSv/MBq. The “Dose, Liver” value ([1]; ICRP-89 adult female model) was 2.29E-02 mSv/MBq, the “Dose, Lungs” value ([1]; ICRP-89 adult female model) was 6.16E-02 mSv/MBq and the “Dose, Osteogenic cells” value ([1]; ICRP-89 adult female model) was 1.36E-02 mSv/MBq. The “Dose, Ovaries” value ([1]; ICRP-89 adult female model) was 1.66E-02 mSv/MBq, the “Dose, Pancreas” value ([1]; ICRP-89 adult female model) was 2.12E-02 mSv/MBq and the “Dose, Rectum” value ([1]; ICRP-89 adult female model) was 1.88E-02 mSv/MBq. For the same molecule, the “Dose, Red marrow” value ([1]; ICRP-89 adult female model) was 2.01E-02 mSv/MBq, the “Dose, Right colon” value ([1]; ICRP-89 adult female model) was 6.29E-02 mSv/MBq and the “Dose, Salivary glands” value ([1]; ICRP-89 adult female model) was 1.01E-02 mSv/MBq. For the same molecule, the “Dose, Small intestine” value ([1]; ICRP-89 adult female model) was 6.01E-02 mSv/MBq, the “Dose, Spleen” value ([1]; ICRP-89 adult female model) was 2.77E-02 mSv/MBq and the “Dose, Stomach wall” value ([1]; ICRP-89 adult female model) was 1.69E-02 mSv/MBq. For the same molecule, the “Dose, Thymus” value ([1]; ICRP-89 adult female model) was 1.88E-02 mSv/MBq, the “Dose, Thyroid” value ([1]; ICRP-89 adult female model) was 1.32E-02 mSv/MBq and the “Dose, Total body” value ([1]; ICRP-89 adult female model) was 1.53E-02 mSv/MBq. For the same molecule, the “Dose, Uterus” value ([1]; ICRP-89 adult female model) was 1.92E-02 mSv/MBq, the “Dose, Urinary bladder wall” value ([1]; ICRP-89 adult female model) was 5.92E-02 mSv/MBq and the “whole-body effective dose, ED (ICRP-103)” value ([1]; ICRP-89 adult female model) was 0.0272 mSv/MBq and 2.72E-02 mSv/MBq. For the same molecule, the “Dose, Adrenals” value ([1]; ICRP-89 adult male model) was 1.87E-02 mSv/MBq, the “Dose, Brain” value ([1]; ICRP-89 adult male model) was 9.69E-03 mSv/MBq and the “Dose, Esophagus” value ([1]; ICRP-89 adult male model) was 1.49E-02 mSv/MBq. The “Dose, Eyes” value ([1]; ICRP-89 adult male model) was 7.78E-03 mSv/MBq, the “Dose, Gallbladder wall” value ([1]; ICRP-89 adult male model) was 6.57E-02 mSv/MBq and the “Dose, Heart wall” value ([1]; ICRP-89 adult male model) was 4.90E-02 mSv/MBq. For the same molecule, the “Dose, Kidneys” value ([1]; ICRP-89 adult male model) was 4.63E-02 mSv/MBq, the “Dose, Left colon” value ([1]; ICRP-89 adult male model) was 1.62E-02 mSv/MBq and the “Dose, Liver” value ([1]; ICRP-89 adult male model) was 3.02E-02 mSv/MBq. For the same molecule, the “Dose, Lungs” value ([1]; ICRP-89 adult male model) was 4.01E-02 mSv/MBq, the “Dose, Osteogenic cells” value ([1]; ICRP-89 adult male model) was 1.21E-02 mSv/MBq and the “Dose, Pancreas” value ([1]; ICRP-89 adult male model) was 1.48E-02 mSv/MBq. For the same molecule, the “Dose, Prostate” value ([1]; ICRP-89 adult male model) was 1.78E-02 mSv/MBq, the “Dose, Rectum” value ([1]; ICRP-89 adult male model) was 1.60E-02 mSv/MBq and the “Dose, Red marrow” value ([1]; ICRP-89 adult male model) was 1.65E-02 mSv/MBq. For the same molecule, the “Dose, Right colon” value ([1]; ICRP-89 adult male model) was 2.37E-02 mSv/MBq, the “Dose, Salivary glands” value ([1]; ICRP-89 adult male model) was 9.10E-03 mSv/MBq and the “Dose, Small intestine” value ([1]; ICRP-89 adult male model) was 2.08E-02 mSv/MBq. The “Dose, Spleen” value ([1]; ICRP-89 adult male model) was 1.84E-02 mSv/MBq, the “Dose, Stomach wall” value ([1]; ICRP-89 adult male model) was 1.42E-02 mSv/MBq and the “Dose, Testes” value ([1]; ICRP-89 adult male model) was 3.17E-02 mSv/MBq. The “Dose, Thymus” value ([1]; ICRP-89 adult male model) was 1.44E-02 mSv/MBq, the “Dose, Thyroid” value ([1]; ICRP-89 adult male model) was 1.14E-02 mSv/MBq and the “Dose, Total body” value ([1]; ICRP-89 adult male model) was 1.16E-02 mSv/MBq. The “Dose, Urinary bladder wall” value ([1]; ICRP-89 adult male model) was 1.24E-01 mSv/MBq, the “whole-body effective dose, ED (ICRP-103)” value ([1]; ICRP-89 adult male model) was 0.0267 mSv/MBq and 2.67E-02 mSv/MBq and the “Dose, Adrenals” value ([1]; Mean) was 2.06E-02 mSv/MBq. The “Dose, Brain” value ([1]; Mean) was 1.09E-02 mSv/MBq, the “Dose, Breasts” value ([1]; Mean) was 1.06E-02 mSv/MBq and the “Dose, Esophagus” value ([1]; Mean) was 1.62E-02 mSv/MBq. The “Dose, Eyes” value ([1]; Mean) was 8.54E-03 mSv/MBq, the “Dose, Gallbladder wall” value ([1]; Mean) was 0.18 mSv/MBq and 0.177 mSv/MBq and 1.77E-01 mSv/MBq and the “Dose, Heart wall” value ([1]; Mean) was 4.94E-02 mSv/MBq. For the same molecule, the “Dose, Kidneys” value ([1]; Mean) was 4.96E-02 mSv/MBq, the “Dose, Left colon” value ([1]; Mean) was 2.32E-02 mSv/MBq and the “Dose, Liver” value ([1]; Mean) was 2.66E-02 mSv/MBq. The “Dose, Lungs” value ([1]; Mean) was 5.09E-02 mSv/MBq, the “Dose, Osteogenic cells” value ([1]; Mean) was 1.29E-02 mSv/MBq and the “Dose, Ovaries” value ([1]; Mean) was 1.66E-02 mSv/MBq. The “Dose, Pancreas” value ([1]; Mean) was 1.80E-02 mSv/MBq, the “Dose, Prostate” value ([1]; Mean) was 1.78E-02 mSv/MBq and the “Dose, Rectum” value ([1]; Mean) was 1.74E-02 mSv/MBq. The “Dose, Red marrow” value ([1]; Mean) was 1.83E-02 mSv/MBq, the “Dose, Right colon” value ([1]; Mean) was 4.33E-02 mSv/MBq and the “Dose, Salivary glands” value ([1]; Mean) was 9.60E-03 mSv/MBq. For the same molecule, the “Dose, Small intestine” value ([1]; Mean) was 4.05E-02 mSv/MBq, the “Dose, Spleen” value ([1]; Mean) was 2.31E-02 mSv/MBq and the “Dose, Stomach wall” value ([1]; Mean) was 1.56E-02 mSv/MBq. The “Dose, Testes” value ([1]; Mean) was 3.17E-02 mSv/MBq, the “Dose, Thymus” value ([1]; Mean) was 1.66E-02 mSv/MBq and the “Dose, Thyroid” value ([1]; Mean) was 1.23E-02 mSv/MBq. The “Dose, Total body” value ([1]; Mean) was 1.35E-02 mSv/MBq, the “Dose, Uterus” value ([1]; Mean) was 1.92E-02 mSv/MBq and the “Dose, Urinary bladder wall” value ([1]; Mean) was 0.0916 mSv/MBq and 9.16E-02 mSv/MBq. For the same molecule, the “whole-body effective dose, ED (ICRP-103)” value ([1]; Mean) was 2.70E-02 mSv/MBq, the “whole-body effective dose per 185 MBq injected” value ([1]; female value) was 5.03 mSv and the “maximal dose allowed for a single study per 21 CFR § 361.1” value ([1]; gallbladder wall as the dose-limiting organ) was 282.5 MBq. The elimination pathways ([1]; whole-body imaging) was “eliminated via both hepatobiliary and urinary pathways; also recorded: urinary (primary) and hepatobiliary pathways” and the “testes uptake (SUV)” value [2] was ~ 2.
